From patent US20030216327A1, “Sapogenin-based treatment” (L'OREAL, priority 2002, published 2003)

System: immortalized human sebocytes derived from the SZ95 line
Assay: Lipid production by immortalized human sebocytes in culture (Nile Red fluorescence)
Type: cell-based
Settings: treatment for two days; for VARIATION IN LIPIDS (compared to control): total lipids (neutral + non-neutral), Nile Red, 0.1% DMSO
Experimental: Hecogenin and diosgenin, provided by SIGMA, were tested on a model of immortalized human sebocytes in culture, derived from the SZ95 line described in C. C. Zouboulis, H. Seltmann, H. Neitzel & C. E. Orfanos, Establishment and Characterization of an Immortalized Human Sebaceous Gland Cell Line, J. Invest. Dermatol., 113, 1011-1020 (1999).
The test consisted in measuring the amount of lipids produced by the sebocytes of the line (at confluency), in the presence or absence of active agents, diluted in DMSO such that the final amount of DMSO in the culture medium is 0.1%. After treatment for two days, the adherent cells are treated with Nile Red (1 μg/ml). The lipid content is then quantified by measuring the fluorescence of the dye (two excitation/emission couples: 485-540 nm for the neutral lipids and 540-620 nm for the non-neutral lipids). The results are given for the total lipids (combination of the two measurements).
The experiment was carried out in triplicate (assay products and control) in a 96-well plate and repeated three times.

Compound | activity on lipid content (lipogenesis) (0.1 μM, same test, total lipids) | increase in the lipid content of the sebum (10 μM, same test, total lipids) | VARIATION IN LIPIDS (compared to control) (0.1 μM)
C[C@]12CC[C@H](O)CC1=CC[C@@H]1[C@@H]2CC[C@]2(C)C(=O)CC[C@@H]12 [DHEA] | inactive | 13% | 
C[C@@H]1CC[C@@]2(OC1)O[C@H]1C[C@H]3[C@@H]4CC=C5C[C@@H](O)CC[C@]5(C)[C@H]4CC[C@]3(C)[C@H]1[C@@H]2C [Diosgenin] |  |  | +4%
C[C@@H]1CC[C@@]2(OC1)O[C@H]1C[C@H]3[C@@H]4CC[C@@]5(C)C[C@@H](O)CC[C@]5(C)[C@H]4CC(=O)[C@]3(C)[C@H]1[C@@H]2C [Hecogenin] |  |  | +5%
